Here are results for 36 compounds from patent publication US8110681B2, “Compounds for the treatment of spinal muscular atrophy and other uses” (The United States of America as represented by the …, priority 2006, dated 2012).

The test system of test [1] is luciferase reporter containing the UAG stop codon. Kind of test: Translational read-through luciferase reporter assay, UAG stop codon. The class given is cell-based. As to conditions: read-out: MaxFold Increase. The text has this: This assay is described in detail in WO 01/44516 A2. This is a cell-based luciferase reporter assay designed to detect translational read-through via insertion of a translational stop codon within the luciferase coding sequence. In the presence of compounds that promote read-through of translational stop codons, active luciferase is produced and detected via chemiluminescence. We have shown that indoprofen analogs are active in two versions of this assay—one containing a UGA stop codon and one containing a UAG stop codon. The data in the table is from the luciferase reporter containing the UAG stop codon. This is the first stop codon downstream of the improper splice junction between exons 6 and 8 in the human SMN2 transcript.

Test [2] deals with SMN2-linked luciferase-reporter gene construct. Kind of test: SMN splice reporter assay (SMN2-linked luciferase reporter, Example 10). In kind it is cell-based. To be noted: for maximal fold induction: read-out: SMN Splice Reporter Assay (Example 10) Avg MaxFold Increase. Put shortly:
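Cervical carcinoma cells stably carrying an SMN2–luciferase splice reporter, in which luciferase is in frame only when SMN2 exon 7 is included, were treated with compound. Luciferase activity was read and expressed as fold increase over untreated transformed cells.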

Where [3] appears, read: SMN2-linked luciferase reporter, average.
The mark [4] stands for this setting: maximum fold increase of reporter signal, average.
Where [5] appears, read: SMN2-linked luciferase reporter, average maximum fold increase.

Where two headings read alike, the source gives them in different places.

On to `CCCc1ccc2c(c1)C(=O)N(c1ccc(C(C)C(=O)OC(C)(C)C)cc1)C2` (stereo not drawn) [ALB-113213], for which the maximal fold induction was 1.9 in test [1] and 1.23 in test [2] (setting [4]). The EC50 in test [2] (setting [3]) is 565 nM.
For `CC(C(=O)O)c1ccc(N2Cc3ccc(C(F)(F)F)cc3C2=O)cc1` (stereo not drawn) [ALB-113652], in that order: 2.9, 1.66 and 1490 nM.
In the case of `CC(C)c1ccc(N2Cc3cccc(Cl)c3C2=O)cc1` [ALB-117454], the figures for the maximal fold induction in test [1] and in test [2] (setting [4]) were 3.1 and 1.51, respectively. This compound came in with an EC50 in test [2] (setting [3]) of 470 nM.
In the same order, the values of `CC(C)c1ccc(N2Cc3ccc(C(F)(F)F)cc3C2=O)cc1` [ALB-117902] are 2, 1.57 and 1100 nM.
Take `CC(C)c1ccc(N2Cc3ccc(O)cc3C2=O)cc1` [ALB-116078]: the maximal fold induction in test [1] worked out at 3.3; in test [2] (setting [5]) it was 1.64. The compound also showed an EC50 in test [2] (setting [3]) of 267 nM.
With `CC(C)c1ccc(N2Cc3cc(Cl)ccc3C2=O)cc1` [ALB-116932], the values for the maximal fold induction in test [1] and in test [2] (setting [4]) were 2.4 and 1.45, respectively. In test [2] (setting [3]), this compound showed an EC50 of 81 nM.
On to `COCC(C)c1ccc(N2Cc3ccc(OC)cc3C2=O)cc1` (stereo not drawn) [ALB-114783], for which the results for the maximal fold induction in test [1] and in test [2] (setting [4]) were 2.6 and 1.37, respectively. This compound also yielded an EC50 in test [2] (setting [3]) of 186 nM.
For `CNc1ccc2c(c1)C(=O)N(c1ccc(C(C)C)cc1)C2` [ALB-117046], in that order: 2.9, 1.44 and 90 nM.
For `CC(C(=O)O)c1ccc(N2Cc3cc4c(cc3C2=O)OCCO4)cc1` (stereo not drawn) [ALB-114844], in that order: 2.4, 1.36 and 8 nM.
In the same order, the values of `CCCC(C)c1ccc(N2Cc3ccc(OC)cc3C2=O)cc1` (stereo not drawn) [ALB-117451] are 2.1, 1.74 and 2910 nM.
With `Cc1ccc2c(c1)C(=O)N(c1ccc(C(C)C)cc1)C2` [ALB-115586], the maximal fold induction in test [1] worked out at 2.3; in test [2] (setting [4]), 1.32. In addition, the EC50 in test [2] (setting [3]) turned out to be 97 nM.
On to `CC(C)c1ccc(N2Cc3ccccc3C2=O)cc1` [ALB-114274], for which the maximal fold induction was determined as 2.6 in test [1] and 1.4 in test [2] (setting [4]). In addition, the EC50 in test [2] (setting [3]) was 52 nM.
On to `COc1ccc2c(c1)C(=O)N(c1ccc(C(C)C(O)OC)cc1)C2` (stereo not drawn) [ALB-114441], for which the maximal fold induction in test [1] came out at 3.2; in test [2] (setting [4]), 1.67. A half-maximal response in test [2] (setting [3]) (EC50) required 76 nM.
For `COc1ccc2c(c1)C(=O)N(c1ccc(C)cc1)C2` [ALB-115084], in that order: 2.3, 1.39 and 60 nM.
In the same order, the values of `CCOc1ccc2c(c1)C(=O)N(c1ccc(C(C)C)cc1)C2` [ALB-116074] are 2.9, 1.51 and 310 nM.
With `CC(C(=O)O)c1ccc(N2Cc3ccc(Cl)cc3C2=O)cc1` (stereo not drawn) [ALB-111743], the values for the maximal fold induction in test [1] and in test [2] (setting [4]) were 2.7 and 1.67, respectively. Besides, the EC50 in test [2] (setting [3]) turned out to be 267 nM.
For `CC(C)c1ccc(N2Cc3ccc(Br)cc3C2=O)cc1` [ALB-114901], in that order: 2.6, 1.52 and 193 nM.
For `CC(C)c1ccc(N2Cc3ccc(Cl)cc3C2=O)cc1` [ALB-116246], in that order: 2.7, 1.35 and 31 nM.
Take `CC(C(=O)O)c1ccc(N2Cc3ccc(N(C)C)cc3C2=O)cc1` (stereo not drawn) [ALB-113648]: the maximal fold induction in test [1] came to 3.3; in test [2] (setting [4]) it was 1.6. This compound also showed an EC50 in test [2] (setting [3]) of 28 nM.
For `Cc1cccc2c1C(=O)N(c1ccc(C(C)C)cc1)C2` [ALB-115812], in that order: 3, 1.35 and 163 nM.
For the compound `CC(C)c1ccc(N2Cc3cc4c(cc3C2=O)OCO4)cc1` [ALB-116362], the maximal fold induction was determined as 2.3 in test [1] and 1.52 in test [2] (setting [5]). Further, the EC50 in test [2] (setting [3]) is 123 nM.
Take `CC(C)(C)c1ccc(N2Cc3cc4c(cc3C2=O)OCCO4)cc1` [ALB-117452]: the maximal fold induction in test [1] was determined as 2.2; in test [2] (setting [5]), 1.4. The compound also had an EC50 in test [2] (setting [3]) of 289 nM.
As to `Cc1ccc2c(c1)CN(c1ccc(C(C)C)cc1)C2=O` [ALB-115948], the maximal fold induction in test [1] was 2.8; in test [2] (setting [4]), 1.42. This compound had an EC50 in test [2] (setting [3]) of 30 nM.
Regarding `CC(C(=O)O)c1ccc(N2Cc3ccccc3C2=O)cc1-c1cncnc1` (stereo not drawn) [ALB-112232], in test [2] (setting [4]), the maximal fold induction worked out at 1.05.
On the same count and under the same terms, the result for `CC(C(=O)O)c1ccc(N2Cc3ccc(-c4cncnc4)cc3C2=O)cc1` (stereo not drawn) [ALB-112517] reads 1.25.
`C/C=C\c1ccc2c(c1)C(=O)N(c1ccc(C(C)C(=O)OC(C)(C)C)cc1)C2` (stereo not drawn) [ALB-113000] returned an EC50 in test [2] (setting [3]) of 3740 nM. Moreover, in test [2] (setting [4]), the maximal fold induction was found to be 1.31.
In the case of `CCCc1ccc2c(c1)C(=O)N(c1ccc(C(C)C)cc1)C2` [ALB-114939], the EC50 in test [2] (setting [3]) was 298 nM. In addition, the maximal fold induction in test [2] (setting [4]) is 1.43.
Compound `CC(C)Oc1ccc2c(c1)C(=O)N(c1ccc(C(C)C)cc1)C2` [ALB-116076] yielded an EC50 in test [2] (setting [3]) of 72 nM. Also, the maximal fold induction in test [2] (setting [4]) was found to be 1.35.
Turning to `CC(C)c1ccc(N2Cc3ccc(OC4CCCC4)cc3C2=O)cc1` [ALB-116077], the maximal fold induction in test [2] (setting [4]) was 1.18.
In test [2] (setting [3]), `CC(C)c1ccc(N2Cc3ccc(-c4ccccc4)cc3C2=O)cc1` [ALB-118037] displayed an EC50 of 937 nM. Besides, the maximal fold induction in test [2] (setting [4]) turned out to be 1.34.
In the same order, the values of `COCc1ccc2c(c1)C(=O)N(c1ccc(C(C)C(=O)O)cc1)C2` (stereo not drawn) [ALB-114439] are 52 nM and 1.51.
In test [2] (setting [3]), `CC(C(=O)O)c1ccc(N2Cc3ccccc3C2=O)cc1-c1ccccc1` (stereo not drawn) [ALB-112234] came in with an EC50 of 25400 nM. For the same compound, the maximal fold induction in test [2] (setting [4]) is 1.26.
As for `CC(C(=O)NS(C)(=O)=O)c1ccc(N2Cc3ccccc3C2=O)cc1` (stereo not drawn) [ALB-111744], the maximal fold induction in test [2] (setting [4]) worked out at 1.14.
As to `CC(C(=O)O)c1ccc(N2Cc3cc(NS(C)(=O)=O)ccc3C2=O)cc1` (stereo not drawn) [ALB-113647], the maximal fold induction in test [2] (setting [5]) is 1.11.
In test [2] (setting [3]), `CC(CO)c1ccc(N2Cc3ccccc3C2=O)cc1` (stereo not drawn) [ALB-113309] displayed an EC50 of 144 nM. Besides, the maximal fold induction in test [2] (setting [4]) turned out to be 1.19.
For `CCOCc1ccc2c(c1)C(=O)N(c1ccc(C(C)CO)cc1)C2` (stereo not drawn) [ALB-114743], in that order: 448 nM and 1.37.
